Source: patent US20260199368A1, “[…] SYSTEM CONTAINING REMIMAZOLAM” (LTS LOHMANN THERAPIE-SYSTEME AG, priority 2022, published 2026)

How the values were obtained:
Goettingen minipigs = assay: In vivo studies using Goettingen minipigs: depth of sedation score; details: Animal No 1; 10 min post dosing; IV, 2 mL of 5 mg/mL (10 mg)
[1] = Mucosa permeation study (in vitro permeation test); assay type: in vitro ADME, pig
Method: Where not otherwise indicated, the in vitro permeation test is performed with dermatomed split-thickness pig mucosa (mucosa oesophagus) with a thickness of 400 μm and an intact barrier function, and with phosphate buffer pH 7.4 as receptor medium (37° C.). The amount of active permeated into the receptor medium is determined in regular intervals using an HPLC method with a UV photometric detector by taking a sample volume. The measured amount of active permeated relates to the amount permeated between the two last sampling points and not the total amount permeated so far. Within the meaning of this invention, artificial saliva refers to an aqueous solution of 0.520 g/L potassium thiocyanate, 1.470 g/L potassium chloride, 0.190 g/L sodium dihydrogenphosphate monohydrate and 2.650 g/L sodium hydrogenphosphate dihydrate, adjusted to a pH of 7.0+/−0.05 using 1 N NaOH.
For the investigation of the potential impact of pH on the permeation, a permeation study was performed to assess the permeation of remimazolam besylate (RMZ besylate) through the mucosa in dependence of pH value. In a second run, also the performance of remimazolam lyophilizate product (RMZ besylate) vs. oromucosal delivery system was assessed.
The samples used for permeation run 1 are defined in Table 19.
(§1) The permeated amount and the corresponding mucosa permeation rates of the oromucosal delivery system prepared according to Examples 2a were determined by in vitro experiments in accordance with the OECD Guideline (adopted Apr. 13, 2004) using pig mucosa with a thickness of 400 μm (mucosa oesophagus). The donor solutions were prepared by dissolving a sample film of Example 2a with a size of 5.75 cm^2 either in 5 ml artificial saliva or in 5 ml 0.9% NaCl. The remimazolam besylate was dissolved in artificial saliva so that the applied dose of RMZ was equivalent to an oromucosal delivery system containing 50 mg remimazolam in 500 μL medium, and the pH of the mixture was adjusted as indicated in Table 19. The pH was measured using a pH electrode. The permeation donor solutions were directly applied to the mucosa (diffusion area of 4.524 cm^2). The remimazolam permeated amount in the receptor medium (phosphate buffer solution pH 7.4) at a temperature of 37±1° C. was measured and the corresponding mucosa permeation rate calculated.
(§2) Due to the high variability in permeation run 1 (n=3), a second permeation experiment was performed with more replicates (n=6) to enlarge the data basis. The samples used are defined in table 15. Example 2a and Lyophilizate were dissolved in artificial saliva and 0.9% NaCl, respectively. Due to a pH adjustment in the lyophilizate/drug product, the resulting pH was slightly lower (pH 3.14 and pH 3.09) than with the Example 2a without pH adjustment (pH 3.67 and pH 3.50). A RMZ sample set to pH 3 served as a control.
The permeated amount and the corresponding mucosa permeation rates of the oromucosal delivery system prepared according to Examples 2a were determined as outlined above. The remimazolam permeated amount in the receptor medium (phosphate buffer solution pH 7.4) at a temperature of 37±1° C. was measured and the corresponding mucosa permeation rate calculated.

[2] = pH and appearance of permeation donor solutions; assay type: physicochemical; details: Artificial Saliva
Method: as §1, §2

COC(=O)CC[C@@H]1N=C(c2ccccn2)c2cc(Br)ccc2-n2c(C)cnc21.O=S(=O)(O)c1ccccc1 [RMZ, remimazolam besylate]
Sedation/anaesthesia score (Goettingen minipigs): ¾ | permeation rate (assessment) ([1]; artificial saliva, pH 4.5 and pH 6): poor | mucosa permeation rate ([1]; n = 3, in artificial saliva (pH 2), 2.5 min): 1.98 μg/cm^2 min | mucosa permeation rate ([1]; n = 3, in artificial saliva (pH 2), 7.5 min): 2.09 μg/cm^2 min | mucosa permeation rate ([1]; n = 3, in artificial saliva (pH 2), 12.5 min): 1.83 μg/cm^2 min | mucosa permeation rate ([1]; n = 3, in artificial saliva (pH 2), 17.5 min): 1.95 μg/cm^2 min | mucosa permeation rate ([1]; n = 3, in artificial saliva (pH 2), 22.5 min): 1.92 μg/cm^2 min | mucosa permeation rate ([1]; n = 3, in artificial saliva (pH 2), 27.5 min): 2.04 μg/cm^2 min | mucosa permeation rate ([1]; n = 3, in artificial saliva (pH 2), 45 min): 1.36 μg/cm^2 min | mucosa permeation rate ([1]; n = 3, in artificial saliva (pH 3), 2.5 min): 0.19 μg/cm^2 min | mucosa permeation rate ([1]; n = 3, in artificial saliva (pH 3), 7.5 min): 0.75 μg/cm^2 min | mucosa permeation rate ([1]; n = 3, in artificial saliva (pH 3), 12.5 min): 1.18 μg/cm^2 min | mucosa permeation rate ([1]; n = 3, in artificial saliva (pH 3), 17.5 min): 1.43 μg/cm^2 min | mucosa permeation rate ([1]; n = 3, in artificial saliva (pH 3), 22.5 min): 1.62 μg/cm^2 min | mucosa permeation rate ([1]; n = 3, in artificial saliva (pH 3), 27.5 min): 1.80 μg/cm^2 min | mucosa permeation rate ([1]; n = 3, in artificial saliva (pH 3), 45 min): 1.60 μg/cm^2 min | mucosa permeation rate ([1]; n = 3, in artificial saliva (pH 4.5), 2.5 min): 0.09 μg/cm^2 min | mucosa permeation rate ([1]; n = 3, in artificial saliva (pH 4.5), 7.5 min): 0.37 μg/cm^2 min | mucosa permeation rate ([1]; n = 3, in artificial saliva (pH 4.5), 12.5 min): 0.22 μg/cm^2 min | mucosa permeation rate ([1]; n = 3, in artificial saliva (pH 4.5), 17.5 min): 0.26 μg/cm^2 min | mucosa permeation rate ([1]; n = 3, in artificial saliva (pH 4.5), 22.5 min): 0.34 μg/cm^2 min | mucosa permeation rate ([1]; n = 3, in artificial saliva (pH 4.5), 27.5 min): 0.58 μg/cm^2 min | mucosa permeation rate ([1]; n = 3, in artificial saliva (pH 4.5), 45 min): 0.26 μg/cm^2 min | mucosa permeation rate ([1]; n = 3, in artificial saliva (pH 6), 2.5 min): 0.11 μg/cm^2 min | mucosa permeation rate ([1]; n = 3, in artificial saliva (pH 6), 7.5 min): 0.18 μg/cm^2 min | mucosa permeation rate ([1]; n = 3, in artificial saliva (pH 6), 12.5 min): 0.18 μg/cm^2 min | mucosa permeation rate ([1]; n = 3, in artificial saliva (pH 6), 17.5 min): 0.31 μg/cm^2 min | mucosa permeation rate ([1]; n = 3, in artificial saliva (pH 6), 22.5 min): 0.37 μg/cm^2 min | mucosa permeation rate ([1]; n = 3, in artificial saliva (pH 6), 27.5 min): 0.58 μg/cm^2 min | mucosa permeation rate ([1]; n = 3, in artificial saliva (pH 6), 45 min): 0.47 μg/cm^2 min | mucosa permeation rate ([1]; n = 6, in artificial saliva (pH 3), 2.5 min): 0.01 μg/cm^2 min | mucosa permeation rate ([1]; n = 6, in artificial saliva (pH 3), 7.5 min): 0.21 μg/cm^2 min | mucosa permeation rate ([1]; n = 6, in artificial saliva (pH 3), 12.5 min): 0.65 μg/cm^2 min | mucosa permeation rate ([1]; n = 6, in artificial saliva (pH 3), 17.5 min): 1.08 μg/cm^2 min | mucosa permeation rate ([1]; n = 6, in artificial saliva (pH 3), 22.5 min): 1.38 μg/cm^2 min | mucosa permeation rate ([1]; n = 6, in artificial saliva (pH 3), 27.5 min): 1.56 μg/cm^2 min | mucosa permeation rate ([1]; n = 6, in artificial saliva (pH 3), 45 min): 1.23 μg/cm^2 min | mucosa permeation, comparison between samples ([1]; run 2, n = 6, 0.9% NaCl and artificial saliva): no significant difference | Appearance of Donor Solution ([2]; run 1, set pH 2): Clear solution | Appearance of Donor Solution ([2]; run 1, set pH 3): Little RMZ solid | Appearance of Donor Solution ([2]; run 1, set pH 4.5): Much RMZ solid | Appearance of Donor Solution ([2]; run 1, set pH 6): Very much RMZ solid | Appearance of Donor Solution ([2]; run 2, set pH 3): Little RMZ solid
